Laboratory results reported in publication PMC3624624 (Bioorganic & medicinal chemistry letters, 2013).

How the values were obtained:
CXCR4 [1] = biological target: T1, CXCR4 (Homo sapiens, UniProt P61073); test: Inhibition of binding of anti-CXCR4 mAbs to cells; assay type: cell-based; conditions: for inhibition of binding of anti-CXCR4 mAb 12G5 / inhibition of binding of anti-CXCR4 mAb 44708 / inhibition of binding of anti-CXCR4 mAb 44716 / inhibition of binding of anti-CXCR4 mAb 44717: 3 μM, Fig. 2C; for inhibition of anti-CXCR4 mAb 12G5 binding: titration, H9 cells and primary T cell blasts, Fig. 2B; for blocking of anti-CXCR4 mAb 44716 binding: H9 lymphoma cells, 1 μM compound, Fig. 2A
CXCR4 [2] = biological target: T1, CXCR4; test: Fluorescent T-140/CXCR4 cross-link inhibition; assay type: binding
TZM-bl = test: MTS toxicity on TZM-bl; assay type: cell-based; conditions: 72 h, concentrations up to 4 μM, data not shown
H9 = test: MTS toxicity on H9; assay type: cell-based; conditions: H9, 72 h, concentrations up to 4 μM, data not shown
PHA blast cultures = test: MTS toxicity on PHA blast cultures; assay type: cell-based; conditions: 72 h, concentrations up to 4 μM, data not shown
CD4 = CD4 (Homo sapiens, UniProt P01730); test: Inhibition of binding of control anti-CD4 mAb Sim.2 to cells; assay type: cell-based; conditions: titration, H9 cells and primary T cell blasts, Fig. 2B
X4 strains of HIV-1 = test: TZM-bl HIV-1 neutralization assay, X4 isolates; assay type: cell-based; conditions: TZM-bl cells, Fig. 3B

T1 sequence (P61073 whole entry): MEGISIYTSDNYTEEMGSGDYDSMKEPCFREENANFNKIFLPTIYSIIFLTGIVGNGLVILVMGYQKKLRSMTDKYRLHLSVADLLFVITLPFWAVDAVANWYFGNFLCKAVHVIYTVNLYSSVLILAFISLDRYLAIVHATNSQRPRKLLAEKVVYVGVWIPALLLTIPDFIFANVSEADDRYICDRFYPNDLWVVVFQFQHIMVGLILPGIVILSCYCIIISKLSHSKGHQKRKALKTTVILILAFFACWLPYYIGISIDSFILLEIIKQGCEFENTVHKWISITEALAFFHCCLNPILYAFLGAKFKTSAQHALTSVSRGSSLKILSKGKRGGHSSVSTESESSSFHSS

SMILES | inhibition of binding of anti-CXCR4 mAb 12G5 (CXCR4 [1]) | inhibition of binding of anti-CXCR4 mAb 44708 (CXCR4 [1]) | inhibition of binding of anti-CXCR4 mAb 44716 (CXCR4 [1]) | inhibition of binding of anti-CXCR4 mAb 44717 (CXCR4 [1]) | inhibition of anti-CXCR4 mAb 12G5 binding (CXCR4 [1]) | fold higher CXCR4 affinity than the previously published phenylguanides (CXCR4 [2]) | inhibition in MTS dye reduction (TZM-bl) | inhibition in MTS dye reduction (H9) | inhibition in MTS dye reduction (PHA blast cultures) | blocking of anti-CXCR4 mAb 44716 binding (CXCR4 [1]) | inhibition of anti-CD4 mAb Sim.2 binding (CD4) | inhibition of a panel of four X4-tropic viruses (X4 strains of HIV-1)
NCCCNCCCCNCCCN [spermine, reference compound] | No inhibition | No inhibition | No inhibition | No inhibition | does not inhibit | – | – | – | – | – | – | –
N=C(NCCCNCCCCN(CCCNC(=N)Nc1cccc2ccccc12)C(=N)Nc1cccc2ccccc12)Nc1cccc2ccccc12 [spermine tris-1-NapG, spermine tris-1-naphthylguanide] | completely inhibited | only partly inhibited | completely inhibited | only partly inhibited | inhibits anti-CXCR4 binding | 5 fold | no significant inhibition | no significant inhibition | no significant inhibition | most effective | not anti-CD4 | all were inhibited at submicromolar concentrations
N=C(NCCCNCCCCN(CCCNC(=N)Nc1ccc2ccccc2c1)C(=N)Nc1ccc2ccccc2c1)Nc1ccc2ccccc2c1 [spermine tris-2-NapG, spermine tris-2-naphthylguanide] | – | – | – | – | – | – | – | – | – | next best | – | –
